Several values for one entry are separate records, joined by “and”; a condition that tells them apart may be missing. Identical values can stand only once.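 A five-concentration, 48-hour dose response in 96-well plates underlies each endpoint, interpolated linearly between surrounding concentrations. The concentration for 50% growth inhibition is given as GI50. TGI denotes the concentration required for complete inhibition of growth.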 Where only a bound is given, the exact number is not on record here.

The test system of the first experiment is HCT-15 colon. Briefly: inhibition of tumour cell growth, NCI panel, 48 h.
In the case of `COc1ccc(-n2c(C)cc(-c3ccccc3)c2C)cc1`, the GI50 is 1.95 µM and the TGI turned out to be 13.3 µM.

In turn, `CCOP(=O)(OCC)OC1C=CC2CCC1C2` (stereo not drawn) showed a TGI greater than 100 µM.

For `CCOc1ccncc1[N+](=O)[O-]`, the TGI is greater than 100 µM.

Consider `COc1c[c]([Hg][O]C(C)=O)c(OC)c(NC(=O)CC(C)=O)[c]1[Hg][O]C(C)=O`, for which the GI50 was 3.11 µM.

For `O=C(Nc1ccc(F)cc1)c1cc(S(=O)(=O)Nc2nc3ccccc3o2)c(SCc2ccccc2)cc1Cl`, the GI50 is 15.8 µM and the TGI is 30.1 µM.

Turning to `O=C(/C=C/c1ccccc1Cl)NC1C=Nc2ccc([N+](=O)[O-])cc2NC1` (stereo not drawn), the TGI is greater than 100 µM.

Regarding `CCCO/S(=N\S(=O)(=O)c1ccccc1)c1ccccc1[N+](=O)[O-]` (stereo not drawn), the TGI was greater than 100 µM.

`Cc1ccc(C)c(N=C2NC(=O)C(CC(=O)Nc3ccc(Cl)cc3Cl)S2)c1` (stereo not drawn) displayed a TGI greater than 100 µM.

In the case of `O=C1NC(=O)C(c2cccc([N+](=O)[O-])c2)=C1Nc1cc(Cl)c(O)c(Cl)c1`, the GI50 was greater than 25 µM and the TGI is greater than 25 µM.

Regarding `COC(=O)[C@@H](C)C[C@H](Cc1ccccc1)NC(=O)c1csc([C@@H](C[C@H](C(C)C)N(C)C(=O)[C@@H](NC(=O)[C@H]2CCCCN2C)C2CCCCC2)OC(C)=O)n1`, the GI50 was 0.00102 µM and 0.0025 µM; the TGI was greater than 25 µM.

On to `NC(=O)OCCn1cc(-c2nc(-c3c[nH]c4ncccc34)cs2)c2ccccc21`, for which the GI50 was 1.92 µM and the TGI was greater than 100 µM.

For the compound `COc1ccc(CCNC(=O)c2ccc(NC3=C(Cl)C(=O)N(Cc4ccccc4)C3=O)cc2)cc1OC`, the GI50 was 4.1 µM and the TGI was greater than 100 µM.

In the case of `Cc1nc([N+](=O)[O-])cn1CC(=N)N`, the TGI is greater than 100 µM.

The compound `O=CN1CCN(CC(O)CN2CCCCC2)CC1` (stereo not drawn) gave a TGI greater than 100 µM.

`O=Cc1ccc2c(c1-c1c(C=O)ccc3c1OCO3)OCO2` showed a TGI greater than 100 µM.

`CC(=O)O[C@H]1CCC2[C@@H]3CCC4Nc5[nH]ncc5C[C@]4(C)C3CC[C@@]21C` (stereo partly drawn): the TGI was greater than 100 µM.

The next experiment relates to CCRF-CEM leukemia. The experiment can be described thus: inhibition of tumour cell growth, NCI panel, 48 h.
Consider `CCn1c(=O)c2c(=O)c3c4c(oc3oc2c2ccccc21)C(=O)c1ccccc1C4=O`, for which the GI50 was 1.18 µM and the TGI was greater than 100 µM.

`Cc1nc(-[n+]2nc(-c3ccncc3)nn2-c2ccccc2)sc1C` returned a TGI greater than 100 µM.

As for `CC1=C(C(=O)Nc2ccc(Cl)c(Cl)c2)C(c2cccc(Oc3ccccc3)c2)NC(=O)N1` (stereo not drawn), the GI50 is greater than 50 µM and the TGI was greater than 50 µM.

`CC1COC(C)(C)P(=O)(c2ccccc2)C1` (stereo not drawn): the TGI was greater than 100 µM.

For `Cc1ccc(S(=O)(=O)c2ccc(N)cc2)cc1`, the TGI is greater than 100 µM.

For the compound `COc1ccc(O)c(C(=O)c2ccc(C(=O)N[C@H]3CCCNC[C@@H]3NC(=O)c3ccncc3)cc2)c1F`, the GI50 was 0.721 µM and the TGI is 6.42 µM.

On to `COc1ccc(-n2c(C)cc(-c3ccccc3)c2C)cc1`, for which the GI50 was 2.16 µM and the TGI was 9.16 µM.

Take `CCOP(=O)(OCC)OC1C=CC2CCC1C2` (stereo not drawn): the TGI is greater than 100 µM.

For `CCOc1ccncc1[N+](=O)[O-]`, the TGI is greater than 100 µM.

With `COc1c[c]([Hg][O]C(C)=O)c(OC)c(NC(=O)CC(C)=O)[c]1[Hg][O]C(C)=O`, the GI50 was 1.75 µM and the TGI is 5.43 µM.

In the case of `O=C(Nc1ccc(F)cc1)c1cc(S(=O)(=O)Nc2nc3ccccc3o2)c(SCc2ccccc2)cc1Cl`, the GI50 is 12.9 µM and the TGI was 31.2 µM.

Compound `O=C(/C=C/c1ccccc1Cl)NC1C=Nc2ccc([N+](=O)[O-])cc2NC1` (stereo not drawn) returned a TGI of 84.8 µM.

As for `CCCO/S(=N\S(=O)(=O)c1ccccc1)c1ccccc1[N+](=O)[O-]` (stereo not drawn), the TGI is greater than 100 µM.

`Cc1ccc(C)c(N=C2NC(=O)C(CC(=O)Nc3ccc(Cl)cc3Cl)S2)c1` (stereo not drawn) displayed a TGI greater than 100 µM.

As to `COC(=O)[C@@H](C)C[C@H](Cc1ccccc1)NC(=O)c1csc([C@@H](C[C@H](C(C)C)N(C)C(=O)[C@@H](NC(=O)[C@H]2CCCCN2C)C2CCCCC2)OC(C)=O)n1`, the GI50 was 0.00195 µM and 0.0025 µM; the TGI amounted to 5.8 µM.

For `NC(=O)OCCn1cc(-c2nc(-c3c[nH]c4ncccc34)cs2)c2ccccc21`, the GI50 is 2.65 µM and the TGI turned out to be 16.9 µM.

For `COc1ccc(CCNC(=O)c2ccc(NC3=C(Cl)C(=O)N(Cc4ccccc4)C3=O)cc2)cc1OC`, the GI50 is 0.48 µM and the TGI was 3.71 µM.

Turning to `Cc1nc([N+](=O)[O-])cn1CC(=N)N`, the TGI was greater than 100 µM.

Consider `O=CN1CCN(CC(O)CN2CCCCC2)CC1` (stereo not drawn), for which the TGI was greater than 100 µM.

The compound `O=Cc1ccc2c(c1-c1c(C=O)ccc3c1OCO3)OCO2` gave a TGI greater than 100 µM.

The compound `CC(=O)O[C@H]1CCC2[C@@H]3CCC4Nc5[nH]ncc5C[C@]4(C)C3CC[C@@]21C` (stereo partly drawn) showed a TGI of 66.5 µM.

A further experiment relates to OVCAR-4 ovarian. Briefly: inhibition of tumour cell growth, NCI panel, 48 h.
As for `CCn1c(=O)c2c(=O)c3c4c(oc3oc2c2ccccc21)C(=O)c1ccccc1C4=O`, the GI50 was 0.376 µM and the TGI is 1.5 µM.

In the case of `COc1cc2c(c(OC)c1OC)-c1ncc3cc4c(cc3c1C2)OCO4`, the GI50 was 46.3 µM and the TGI is greater than 100 µM.

For the compound `CC1=C(C(=O)Nc2ccc(Cl)c(Cl)c2)C(c2cccc(Oc3ccccc3)c2)NC(=O)N1` (stereo not drawn), the GI50 is 11.2 µM and the TGI was greater than 50 µM.

`Cc1ccc(S(=O)(=O)c2ccc(N)cc2)cc1` showed a TGI greater than 100 µM.

For the compound `COc1ccc(O)c(C(=O)c2ccc(C(=O)N[C@H]3CCCNC[C@@H]3NC(=O)c3ccncc3)cc2)c1F`, the GI50 was greater than 12.3 µM and the TGI is greater than 25 µM.

Take `COc1ccc(-n2c(C)cc(-c3ccccc3)c2C)cc1`: the GI50 was 2.46 µM and the TGI is greater than 100 µM.

`CCOP(=O)(OCC)OC1C=CC2CCC1C2` (stereo not drawn) came in with a TGI greater than 100 µM.

As for `COc1c[c]([Hg][O]C(C)=O)c(OC)c(NC(=O)CC(C)=O)[c]1[Hg][O]C(C)=O`, the GI50 was 15.9 µM and the TGI stood at 30 µM.

On to `O=C(Nc1ccc(F)cc1)c1cc(S(=O)(=O)Nc2nc3ccccc3o2)c(SCc2ccccc2)cc1Cl`, for which the GI50 was 26.9 µM and the TGI worked out at 60.9 µM.

Values taken from PubChem BioAssay (NCI).
